The supplement of paper PMC10307832

Assays:
Experiment in all cases: relative viability (nuclei count vs DMSO), 5 days (fraction); higher = more cells survive
BMX-IN-1 + Vorinostat = compound: C=CC(=O)Nc1cc(-n2c(=O)ccc3cnc4ccc(-c5ccc(NS(C)(=O)=O)cc5)cc4c32)ccc1C [BMX-IN-1] + O=C(CCCCCCC(=O)Nc1ccccc1)NO [Vorinostat] (partner 1 µM)
Summary of the method: (§1)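 A single step with final 0.05% Triton X-100, 1% formaldehyde and 1 ug/ml Hoechst fixed the cells and stained nuclei 5 days after treatment. Lung cancer cell lines in 1536-well plates had been treated by pin tool the day after seeding with one drug alone or a fixed anchor-drug dose plus five library-drug doses (not always all listed) in √10 steps, and nuclei were counted on 4× images. Relative viability is the ratio of nuclei in treated wells to nuclei in vehicle wells, taken as the median of duplicate plates.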

PAC-1 + Linsitinib = compound: C=CCc1cccc(/C=N/NC(=O)CN2CCN(Cc3ccccc3)CC2)c1O [PAC-1] + C[C@]1(O)C[C@@H](c2nc(-c3ccc4ccc(-c5ccccc5)nc4c3)c3c(N)nccn32)C1 [Linsitinib] (partner 1 µM)
Summary of the method: as §1

Ibrutinib + Lapatinib = compound: C=CC(=O)N1CCC[C@@H](n2nc(-c3ccc(Oc4ccccc4)cc3)c3c(N)ncnc32)C1 [Ibrutinib] + CS(=O)(=O)CCNCc1ccc(-c2ccc3ncnc(Nc4ccc(OCc5cccc(F)c5)c(Cl)c4)c3c2)o1 [Lapatinib] (partner 2 µM)
Summary of the method: as §1

PAC-1 + Dasatinib = compound: C=CCc1cccc(/C=N/NC(=O)CN2CCN(Cc3ccccc3)CC2)c1O [PAC-1] + Cc1nc(Nc2ncc(C(=O)Nc3c(C)cccc3Cl)s2)cc(N2CCN(CCO)CC2)n1 [Dasatinib] (partner 0.075 µM)
Summary of the method: as §1

| Cell Line | relative viability (BMX-IN-1 + Vorinostat; first compound 0.02 µM) | relative viability (BMX-IN-1 + Vorinostat; first compound 0.2 µM) | relative viability (BMX-IN-1 + Vorinostat; first compound 0.6325 µM) | relative viability (BMX-IN-1 + Vorinostat; first compound 2 µM) | relative viability (PAC-1 + Linsitinib; first compound 0.02 µM) | relative viability (PAC-1 + Linsitinib; first compound 0.06325 µM) | relative viability (PAC-1 + Linsitinib; first compound 0.2 µM) | relative viability (PAC-1 + Linsitinib; first compound 2 µM) | relative viability (Ibrutinib + Lapatinib; first compound 0.005 µM) | relative viability (Ibrutinib + Lapatinib; first compound 0.01581 µM) | relative viability (Ibrutinib + Lapatinib; first compound 0.05 µM) | relative viability (Ibrutinib + Lapatinib; first compound 0.1581 µM) | relative viability (Ibrutinib + Lapatinib; first compound 0.5 µM) | relative viability (PAC-1 + Dasatinib; first compound 0.02 µM) | relative viability (PAC-1 + Dasatinib; first compound 0.06325 µM) | relative viability (PAC-1 + Dasatinib; first compound 0.2 µM) | relative viability (PAC-1 + Dasatinib; first compound 2 µM) |
| --- | --- | --- | --- | --- | --- | --- | --- | --- | --- | --- | --- | --- | --- | --- | --- | --- | --- |
| NCI-H2009 | 0.782 | 0.798 | 0.746 | 0.839 | 1.16 | 1.21 | 1.17 | 1.15 | 0.952 | 0.945 | 0.94 | 0.65 | 0.988 | 0.267 | 0.305 | 0.291 | 0.334 |
| HARA | 0.507 | 0.549 | 0.446 | 0.506 | 0.873 | 0.958 | 0.851 | 1.09 | 0.836 | 0.638 | 0.727 | 0.777 | 0.796 | 0.336 | 0.251 | 0.26 | 0.26 |
| HCC-827 | 0.485 | 0.872 | 1.11 | 0.798 | 0.981 | 0.966 | 0.932 | 0.942 | 0.169 | 0.206 | 0.208 | 0.174 | 0.173 | 0.277 | 0.325 | 0.297 | 0.293 |
| NCI-H647 | 0.709 | 0.725 | 0.663 | 0.495 | 1.05 | 1.19 | 1.2 | 0.807 | 0.799 | 0.934 | 1.06 | 1.11 | 1.19 | 0.203 | 0.172 | 0.185 | 0.164 |
| NCI-H661 | 0.878 | 0.877 | 0.857 | 0.743 | 0.432 | 0.561 | 0.52 | 0.532 | 0.414 | 0.504 | 0.489 | 0.571 | 0.426 | 0.992 | 1 | 0.89 | 0.892 |
| NCI-H1651 | 0.481 | 0.585 | 0.604 | 0.552 | 0.823 | 0.933 | 0.992 | 1.12 | 0.699 | 0.756 | 0.796 | 0.723 | 0.906 | 0.391 | 0.446 | 0.394 | 0.393 |
| HCC-78 | 0.383 | 0.438 | 0.431 | 0.41 | 0.565 | 0.607 | 0.544 | 0.467 | 1.27 | 0.812 | 0.57 | 0.398 | 0.399 | 0.335 | 0.331 | 0.404 | 0.394 |
| NCI-H2085 | 0.816 | 0.771 | 0.821 | 0.831 | 0.891 | 0.936 | 0.943 | 1.04 | 0.651 | 0.727 | 0.75 | 0.752 | 0.631 | 0.225 | 0.234 | 0.285 | 0.213 |
| NCI-H2228 | 0.938 | 0.884 | 0.531 | 0.561 | 0.575 | 0.787 | 0.603 | 0.694 | 0.746 | 0.974 | 0.833 | 0.884 | 1.1 | 0.506 | 0.505 | 0.537 | 0.501 |
| LU99A | 0.501 | 0.421 | 0.669 | 0.612 | 0.562 | 0.514 | 0.518 | 0.489 | 0.936 | 1.08 | 1.1 | 1.04 | 0.995 | 0.549 | 0.579 | 0.498 | 0.505 |
| LCLC-97TM1 | 0.724 | 1.08 | 1.04 | 0.842 |  | 0.196 | 0.196 | 0.165 | 0.69 | 0.913 | 1.41 |  | 0.931 | 0.692 | 0.848 | 0.748 | 0.911 |
| NCI-H2023 | 0.726 | 0.742 | 0.654 | 0.105 | 0.642 | 0.615 | 0.512 | 0.876 | 0.622 | 0.711 | 0.772 | 0.818 | 0.868 | 0.553 | 0.615 | 0.42 | 0.55 |
| LC-2-ad | 0.74 | 0.766 | 0.674 | 0.783 | 0.849 | 0.825 | 0.782 | 0.78 | 0.938 | 0.577 | 0.972 | 0.911 | 0.968 | 0.552 | 0.629 | 0.603 | 0.489 |
| NCI-H1975 | 0.707 | 0.754 | 0.737 | 0.703 | 0.917 | 0.908 | 0.921 | 0.894 | 0.899 | 0.772 | 0.837 | 0.79 | 0.517 | 0.358 | 0.363 | 0.336 | 0.347 |
| NCI-H1793 | 0.998 | 0.563 | 0.856 | 0.849 | 0.728 | 1.01 | 1.21 | 0.96 |  | 0.796 | 0.819 | 0.58 | 0.577 | 0.373 | 0.373 | 0.364 | 0.412 |
| HCC-366 | 0.791 | 0.342 | 0.373 | 0.33 | 0.587 | 0.699 | 0.441 | 0.772 | 1.07 | 0.978 | 1.02 | 0.959 | 1.19 | 0.618 | 0.558 | 0.617 | 0.733 |
| NCI-H2347 | 0.725 | 0.716 | 0.586 | 0.596 | 0.97 | 1.02 | 0.894 | 0.986 | 0.962 | 0.899 | 0.897 | 0.555 | 0.861 | 0.28 | 0.3 | 0.312 | 0.362 |
| NCI-H2405 | 1.05 | 1.13 | 1.16 | 0.955 | 0.949 | 0.918 | 0.899 | 1.08 | 0.942 | 1.08 | 0.973 |  | 1.09 | 0.173 | 0.221 | 0.207 | 0.176 |
| NCI-H1666 | 1.03 | 1.05 | 1.13 | 1.15 | 0.986 | 0.789 | 0.983 | 0.891 | 0.722 | 0.583 | 0.814 | 0.749 | 0.761 | 0.834 | 0.845 | 0.793 | 0.836 |
